For one experiment, the target named is T1, TTK (Homo sapiens, UniProt P33981).
T1 sequence (P33981 1-857): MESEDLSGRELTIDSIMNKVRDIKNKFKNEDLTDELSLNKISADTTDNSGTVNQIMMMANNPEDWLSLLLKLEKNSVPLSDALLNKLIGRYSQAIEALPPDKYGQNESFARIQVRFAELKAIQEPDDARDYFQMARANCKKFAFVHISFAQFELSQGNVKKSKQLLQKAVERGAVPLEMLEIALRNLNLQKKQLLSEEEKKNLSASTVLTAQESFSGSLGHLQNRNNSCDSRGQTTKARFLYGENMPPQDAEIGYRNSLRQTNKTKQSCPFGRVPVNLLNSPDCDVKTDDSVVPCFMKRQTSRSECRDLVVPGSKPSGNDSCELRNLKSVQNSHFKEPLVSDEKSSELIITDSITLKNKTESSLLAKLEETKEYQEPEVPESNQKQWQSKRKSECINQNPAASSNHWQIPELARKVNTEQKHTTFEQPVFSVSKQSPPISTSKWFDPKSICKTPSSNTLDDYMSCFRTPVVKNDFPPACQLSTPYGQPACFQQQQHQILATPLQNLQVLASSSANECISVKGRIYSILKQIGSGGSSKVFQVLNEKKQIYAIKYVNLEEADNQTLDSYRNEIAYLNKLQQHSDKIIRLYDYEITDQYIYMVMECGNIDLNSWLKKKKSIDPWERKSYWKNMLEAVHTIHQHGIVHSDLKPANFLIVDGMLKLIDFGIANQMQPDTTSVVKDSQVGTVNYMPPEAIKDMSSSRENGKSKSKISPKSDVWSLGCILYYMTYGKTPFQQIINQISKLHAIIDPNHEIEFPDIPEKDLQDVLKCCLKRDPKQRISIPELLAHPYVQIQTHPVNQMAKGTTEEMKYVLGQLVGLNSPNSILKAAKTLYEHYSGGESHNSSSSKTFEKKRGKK
As to the kind of experiment: TTK enzyme activity, ADP-Glo kinase assay. The experiment is classed as biochemical. Set-up: purchased SignalChem T20-10G. To be noted: purified human TTK, ATP 10 μM, 25° C., 2 hours. In short, it runs like this: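 Purified human TTK (25 ng) incubated with 10 μM ATP and substrate (0.2 μg) for 2 h at 25 °C in Tris-HCl pH 7.4, MgCl2, BSA, DTT buffer. ADP formation read by ADP-Glo; inhibition calculated against untreated solvent control.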
A general note: ADP-Glo first removes unused ATP, then detects ADP through luciferase.

In another experiment the test system is MDA-MB-231 cells. As to the kind of experiment: Inhibition of proliferation of triple-negative breast cancer cells, CellTiter-Glo. The experiment is classed as cell-based. The conditions noted are these: Homo sapiens, 120 h; MDA-MB-231, cultured for 5 days. In short, it runs like this: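 MDA-MB-231 cells pre-cultured 24 h (5% CO2, 37 °C), then exposed to compound for 5 days at 12 three-fold dilutions, final 10 μM to 0.05 nM. Viability read by CellTiter-Glo luminescence after 10 min at 37 °C; growth inhibition calculated relative to untreated solvent-control cells.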
A general note: ATP-based viability assays read luminescence as a measure of living cells.

The next experiment concerns SHP-77. The experiment is described as follows: Inhibition of proliferation of small cell lung cancer cells, CellTiter-Glo. The experiment is classed as cell-based. To be noted: Homo sapiens, SHP77, 120 h; SHP-77, cultured for 5 days. The protocol: Specifically, the following test was performed to evaluate the inhibitory activity of the compound according to the present invention against the cell proliferation in the SCLC cells.
To check an inhibitory ability of cell growth in one SCLC cell line, a test was performed as follows. Cells were seeded in 180 μL of a culture broth at a density of 2,000 to 3,000 cells/well in a white clear bottom 96-well plate (Corning) according to the growth ability of each cell, and then cultured for 24 hours under conditions of 5% CO2 and 37° C. Thereafter, the compound was prepared by diluting a 10 mM stock solution three-fold with 100% DMSO at a total of 12 concentrations so that a peak concentration of the compound was in a range of 10 mM to 0.05 μM, and the diluted compound was then diluted in each cell culture medium so that a final concentration of the compound was in a range of 100 μM to 0.5 nM. 20 μL of a diluted solution diluted with a medium was added to the cell solution in which cells were seeded in the 96-well plate on the previous day so that a final concentration of the diluted solution was in a range of 10 μM to 0.05 nM. Each of the cells was cultured for 5 days. To check cell viability, a mixture provided in aCellTiter-Glo® Luminescent Cell Viability Assay Kit (Promega) was added to each of the cultured cell media, and cultured for another 10 minutes under a condition of 37° C. Then, a degree of luminescence (fluorescence) was measured. A degree of inhibition of the cell growth according to the treatment concentration of each of the compounds was calculated based on the fluorescence of the solvent control cells which were not treated with the compound. In this case, the concentration of each of the compounds inhibiting 50% of the cell growth was determined to be a GI50 (nM) value, and calculated using Prism (Version 7.01; GraphPad) software.

For the compound `Cn1nccc1-c1ccc(Nc2nc(NC3CCCCCC3)c3c(C#N)c[nH]c3n2)c2c1OCCO2` [Example 59, 4-(cycloheptylamino)-2-((8-(1-methyl-1H-pyrazol-5-yl)-2,3-dihydrobenzo[b][1,4]dioxin-5-yl)amino)-7H-pyrrolo[2,3-d] pyrimidine-5-carbonitrile], the concentration for half-maximal inhibition (IC50) (commonly the concentration that gives 50% inhibition) against TTK was in the range of 200 to 1000 nM. Further, the GI50 in the experiment on MDA-MB-231 cells and in the experiment with SHP-77 was < 100 nM in each case.
In the case of `CC1(C)CC(Nc2nc(Nc3cccc4c3OCCO4)nc3[nH]cc(C#N)c23)CCO1` (stereo not drawn) [Example 171], the IC50 against TTK was < 50 nM. Also, the concentration for 50% growth inhibition (GI50) in the experiment on MDA-MB-231 cells and in the experiment on SHP-77 was < 100 nM throughout.
As to `COc1cc(-c2ccnn2C)ccc1Nc1nc(NC2CCCC2)c2c(Cl)c[nH]c2n1` [Example 127, 5-chloro-N^4-cyclopentyl-N^2-(2-methoxy-4-(1-methyl-1H-pyrazol-5-yl)phenyl)-7H-pyrrolo[2,3-d] pyrimidine-2,4-diamine], the IC50 on TTK was 50 to 200 nM. Also, the GI50 with MDA-MB-231 cells and with SHP-77 was < 100 nM each time.
Consider `N#Cc1c[nH]c2nc(Nc3cccc4c3OCCO4)nc(NC3CCOCC3)c12` [Example 170, 2-((2,3-dihydrobenzo[b][1,4]dioxin-5-yl)amino)-4-((tetrahydro-2H-pyran-4-yl)amino)-7H-pyrrolo[2,3-d] pyrimidine-5-carbonitrile], for which the IC50 at TTK is < 50 nM. In addition, the GI50 in the experiment with MDA-MB-231 cells and in the experiment with SHP-77 was < 100 nM each time.
At TTK, `COc1cc(Nc2nc(NC3CCCC3)c3c(C#N)c[nH]c3n2)ccc1-c1cnn(C)c1` [Example 136, 4-(cyclopentylamino)-2-((3-methoxy-4-(1-methyl-1H-pyrazol-4-yl)phenyl)amino)-7H-pyrrolo[2,3-d] pyrimidine-5-carbonitrile] displayed a half-inhibitory concentration (IC50) of 50 to 200 nM. For the same compound, the GI50 with MDA-MB-231 cells and with SHP-77 was < 100 nM in each case.
`COc1cc(Nc2nc(NC3CCCCC3)c3c(C#N)c[nH]c3n2)ccc1-c1cnn(C)c1` [Example 137, 4-(cyclohexylamino)-2-((3-methoxy-4-(1-methyl-1H-pyrazol-4-yl)phenyl)amino)-7H-pyrrolo[2,3-d] pyrimidine-5-carbonitrile] yielded an IC50 on TTK of 50 to 200 nM. In addition, the GI50 in the experiment on MDA-MB-231 cells and with SHP-77 was < 100 nM each time.
As for `Cn1nccc1-c1ccc(Nc2nc(NC3CCC(F)(F)C3)c3c(C#N)c[nH]c3n2)c2c1OCCO2` (stereo not drawn) [Example 116, 4-((3,3-difluorocyclopentyl)amino)-2-((8-(1-methyl-1H-pyrazol-5-yl)-2,3-dihydrobenzo[b][1,4]dioxin-5-yl)amino)-7H-pyrrolo[2,3-d] pyrimidine-5-carbonitrile], the IC50 against TTK was < 50 nM. Besides, the concentration for 50% growth inhibition (GI50) in the experiment on MDA-MB-231 cells and with SHP-77 was < 100 nM throughout.
As to `N#Cc1c[nH]c2nc(Nc3ccc(N4CCCCS4(=O)=O)c(F)c3)nc(NC3CCOCC3)c12` [Example 58, 2-((4-(1,1-dioxido-1,2-thiazinan-2-yl)-3-fluorophenyl)amino)-4-((tetrahydro-2H-pyran-4-yl)amino)-7H-pyrrolo[2,3-d] pyrimidine-5-carbonitrile], on TTK, the 50% inhibitory concentration (IC50) is < 50 nM. For the same compound, the GI50 in the experiment on MDA-MB-231 cells and with SHP-77 was < 100 nM throughout.
With `COc1cc(-c2c(C)noc2C)ccc1Nc1nc(NC2CCCCCC2)c2c(C#N)c[nH]c2n1` [Example 149, 4-(cycloheptylamino)-2-((4-(3,5-dimethylisoxazol-4-yl)-2-methoxyphenyl)amino)-7H-pyrrolo[2,3-d] pyrimidine-5-carbonitrile], at TTK, the half-inhibitory concentration (IC50) was in the range of 50 to 200 nM. The GI50 with MDA-MB-231 cells and in the experiment on SHP-77 was < 100 nM each time.
In turn, `COc1cc(-c2c(C)noc2C)c(F)cc1Nc1nc(NC2CCOCC2)c2c(C#N)c[nH]c2n1` [Example 102, 2-((4-(3,5-dimethylisoxazol-4-yl)-5-fluoro-2-methoxyphenyl)amino)-4-((tetrahydro-2H-pyran-4-yl)amino)-7H-pyrrolo[2,3-d] pyrimidine-5-carbonitrile] came in with a 50% inhibitory concentration (IC50) against TTK of 200 to 1000 nM. The 50% growth inhibitory concentration (GI50) with MDA-MB-231 cells and with SHP-77 was 100 to 1000 nM in each case.
As for `COCCNc1nc(Nc2ccc(-c3ccnn3C)c3c2OCCO3)nc2[nH]cc(C#N)c12` [Example 49, 4-((2-methoxyethyl)amino)-2-((8-(1-methyl-1H-pyrazol-5-yl)-2,3-dihydrobenzo[b][1,4]dioxin-5-yl)amino)-7H-pyrrolo[2,3-d] pyrimidine-5-carbonitrile], the concentration for half-maximal inhibition (IC50) at TTK was < 50 nM. Besides, the GI50 with MDA-MB-231 cells and in the experiment with SHP-77 was < 100 nM throughout.
With `COC[C@@H](C)Nc1nc(Nc2ccc(-c3ccnn3C)cc2OC)nc2[nH]cc(C#N)c12` [Example 168, (R)-2-((2-methoxy-4-(1-methyl-1H-pyrazol-5-yl)phenyl)amino)-4-((1-methoxypropan-2-yl)amino)-7H-pyrrolo[2,3-d] pyrimidine-5-carbonitrile], the IC50 against TTK is < 50 nM. In addition, the GI50 with MDA-MB-231 cells and in the experiment on SHP-77 was < 100 nM each time.
`COc1cc(-c2cccc(O)c2)ccc1Nc1nc(NC2CCOCC2)c2c(C#N)c[nH]c2n1` [Example 141, 2-((3′-hydroxy-3-methoxy-[1,1′-biphenyl]-4-yl)amino)-4-((tetrahydro-2H-pyran-4-yl)amino)-7H-pyrrolo[2,3-d] pyrimidine-5-carbonitrile]: on TTK, the IC50 was < 50 nM. Moreover, the GI50 in the experiment with MDA-MB-231 cells and in the experiment on SHP-77 was < 100 nM each time.
Turning to `Cn1nccc1-c1ccc(Nc2nc(NC3CCOC(C)(C)C3)c3c(C#N)c[nH]c3n2)c2c1OCCO2` (stereo not drawn) [Example 109, 4-((2,2-dimethyltetrahydro-2H-pyran-4-yl)amino)-2-((8-(1-methyl-1H-pyrazol-5-yl)-2,3-dihydrobenzo[b][1,4]dioxin-5-yl)amino)-7H-pyrrolo[2,3-d] pyrimidine-5-carbonitrile], on TTK, the IC50 was < 50 nM. In addition, the GI50 in the experiment with MDA-MB-231 cells and in the experiment on SHP-77 was < 100 nM in each case.
Regarding `COc1cc(N2CCCS2(=O)=O)ccc1Nc1nc(NC2CCOCC2)c2c(C#N)c[nH]c2n1` [Example 165, 2-((4-(1,1-dioxidoisothiazolidin-2-yl)-2-methoxyphenyl)amino)-4-((tetrahydro-2H-pyran-4-yl)amino)-7H-pyrrolo[2,3-d] pyrimidine-5-carbonitrile], the IC50 at TTK was < 50 nM. Further, the 50% growth inhibitory concentration (GI50) with MDA-MB-231 cells and with SHP-77 was < 100 nM throughout.
As for `COc1cc(-c2nncn2C)ccc1Nc1nc(NC2CCOCC2)c2c(C(F)(F)F)c[nH]c2n1` [Example 117, N^2-(2-methoxy-4-(4-methyl-4H-1,2,4-triazol-3-yl)phenyl)-N^4-(tetrahydro-2H-pyran-4-yl)-5-(trifluoromethyl)-7H-pyrrolo[2,3-d] pyrimidine-2,4-diamine], the IC50 at TTK is < 50 nM. Moreover, the GI50 in the experiment with MDA-MB-231 cells and with SHP-77 was < 100 nM each time.
For the compound `COc1cc(N2CCCCS2(=O)=O)ccc1Nc1nc(NC2CCOCC2)c2c(C#N)c[nH]c2n1` [Example 163, 2-((4-(1,1-dioxido-1,2-thiazinan-2-yl)-2-methoxyphenyl)amino)-4-((tetrahydro-2H-pyran-4-yl)amino)-7H-pyrrolo[2,3-d] pyrimidine-5-carbonitrile], the IC50 on TTK was < 50 nM. The GI50 in the experiment with MDA-MB-231 cells and with SHP-77 was < 100 nM throughout.
